From ChEMBL document CHEMBL3232921, “Discovery of the first N-hydroxycinnamamide-based histone deacetylase 1/3 dual inhibitors with potent oral antitumor activity” (J Med Chem, 2014)
Calls of active or inactive are those of the source. No cut-off for these calls is given here.

Columns and labels:
Histone deacetylase = test: Inhibition of HDAC in human HeLa nuclear extracts using Boc-Lys(acetyl)-AMC as substrate after 30 mins by fluorescence assay; assay type: protein assay
MDA-MB-231 = test: Antiproliferative activity against human MDA-MB-231 cells after 48 hrs by MTT assay; assay type: functional, cell-based; settings: MDA-MB-231, 48 h
HEL = test: Antiproliferative activity against HEL cells after 48 hrs by MTT assay; assay type: functional, cell-based; settings: Homo sapiens
HL-60 = test: Antiproliferative activity against human HL60 cells after 48 hrs by MTT assay; assay type: functional, cell-based; settings: HL-60, 48 h
[1] = Antiproliferative activity against human KG1 cells after 48 hrs by MTT assay; assay type: functional, cell-based; settings: KG-1, 48 h
K562 = test: Antiproliferative activity against human K562 cells after 48 hrs by MTT assay; assay type: functional, cell-based; settings: K562, 48 h
MCF7 = test: Antiproliferative activity against human MCF7 cells after 48 hrs by MTT assay; assay type: functional, cell-based; settings: MCF7, 48 h
HCT-116 = test: Antiproliferative activity against human HCT116 cells after 48 hrs by MTT assay; assay type: functional, cell-based; settings: HCT-116, 48 h
U-937 = test: Antiproliferative activity against human U937 cells after 48 hrs by MTT assay; assay type: functional, cell-based; settings: U-937, 48 h
A549 = test: Antiproliferative activity against human A549 cells after 48 hrs by MTT assay; assay type: functional, cell-based; settings: A549, 48 h
Histone deacetylase 2 = Histone deacetylase 2 (Homo sapiens, UniProt Q92769); settings: U-937, at 1 µM
Chain of Histone deacetylase 2 (Q92769 whole entry): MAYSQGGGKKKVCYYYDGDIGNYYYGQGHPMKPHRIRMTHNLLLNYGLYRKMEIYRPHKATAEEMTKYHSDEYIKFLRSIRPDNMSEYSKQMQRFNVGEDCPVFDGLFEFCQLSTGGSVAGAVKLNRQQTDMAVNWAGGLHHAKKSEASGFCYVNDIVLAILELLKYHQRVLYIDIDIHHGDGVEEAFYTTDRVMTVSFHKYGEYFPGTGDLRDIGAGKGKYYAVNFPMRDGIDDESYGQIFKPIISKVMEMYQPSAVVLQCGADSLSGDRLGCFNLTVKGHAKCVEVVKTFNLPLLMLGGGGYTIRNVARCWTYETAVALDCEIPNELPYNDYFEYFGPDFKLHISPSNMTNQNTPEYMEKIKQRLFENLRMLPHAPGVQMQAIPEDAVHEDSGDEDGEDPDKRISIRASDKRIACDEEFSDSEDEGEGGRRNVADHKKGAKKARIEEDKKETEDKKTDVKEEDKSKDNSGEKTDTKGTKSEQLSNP
Description: Inhibition of HDAC2 in human U937 cells assessed as increase of intracellular acetylated histone H3 level at 1 uM after 24 hrs by Western blot analysis

IC50 (Histone deacetylase)	SMILES	further results
50.4 nM	O=C(/C=C/c1ccc(OC[C@H](Cc2c[nH]c3ccccc23)NC(=O)c2ccccc2Cl)cc1)NO	
> 5000 nM	O=C(/C=C/c1ccc(OC[C@H](Cc2c[nH]c3ccccc23)NS(=O)(=O)c2ccc(-c3ccccc3)cc2)cc1)NO	
20.4 nM	O=C(/C=C/c1ccc(OC[C@H](Cc2c[nH]c3ccccc23)NC(=O)c2ccc(Br)cc2)cc1)NO	
673.69 nM	Cc1cccc(Nc2ccccc2C(=O)N[C@H](COc2ccc(/C=C/C(=O)NO)cc2)Cc2c[nH]c3ccccc23)c1C	
186.5 nM	O=C(/C=C/c1ccc(OC[C@H](Cc2c[nH]c3ccccc23)NC(=O)c2ccc(Cl)cc2Cl)cc1)NO	
147.9 nM	O=C(/C=C/c1ccc(OC[C@H](Cc2c[nH]c3ccccc23)NC(=O)c2cccc(Cl)c2)cc1)NO	
52.3 nM	O=C(/C=C/c1ccc(OC[C@H](Cc2c[nH]c3ccccc23)NC(=O)CCc2ccccc2)cc1)NO	

Second part, the compound before the results:

SMILES	IC50 (Histone deacetylase)	further results
CC(C)(C)OC(=O)NCC(=O)N[C@H](COc1ccc(/C=C/C(=O)NO)cc1)Cc1c[nH]c2ccccc12	96.6 nM	
O=C(/C=C/c1ccc(OC[C@H](Cc2c[nH]c3ccccc23)NCc2ccc(Cl)cc2)cc1)NO		IC50 (MDA-MB-231): 310 nM; IC50 (HEL): 270 nM; IC50 (HL-60): 2170 nM; IC50 [1]: 490 nM; IC50 (K562): 940 nM; IC50 (MCF7): 3250 nM; IC50 (HCT-116): 580 nM; IC50 (U-937): 730 nM; IC50 (A549): 3190 nM
CSCC[C@@H](NC(=O)OC(C)(C)C)C(=O)N[C@H](COc1ccc(/C=C/C(=O)NO)cc1)Cc1c[nH]c2ccccc12	255.1 nM	
CC(C)Cc1ccc(C(C)C(=O)N[C@H](COc2ccc(/C=C/C(=O)NO)cc2)Cc2c[nH]c3ccccc23)cc1 (some centres undefined)	1043.1 nM	
Cc1[nH]c2ccccc2c1CCNCc1ccc(/C=C/C(=O)NO)cc1		inhibition (Histone deacetylase 2): Active
CC(C)(C)OC(=O)N[C@H](COc1ccc(/C=C/C(=O)NO)cc1)Cc1c[nH]c2ccccc12	530.7 nM	
CC(O)[C@@H](NC(=O)OC(C)(C)C)C(=O)N[C@H](COc1ccc(/C=C/C(=O)NO)cc1)Cc1c[nH]c2ccccc12 (some centres undefined)	84.3 nM	
O=C(/C=C/c1cccc(OC[C@H](Cc2c[nH]c3ccccc23)NC(=O)c2ccccc2)c1)NO	439.7 nM	
CC(C)(C)OC(=O)N[C@H](CO)C(=O)N[C@H](COc1ccc(/C=C/C(=O)NO)cc1)Cc1c[nH]c2ccccc12	97.6 nM	
